Laboratory results: US8999956B2, “N-[(het)arylalkyl)] pyrazole(thio)carboxamides and their heterosubstituted analogues” (Bayer Intellectual Property GmbH, priority 2010, dated 2015)
Read-outs that look alike come from different tables or passages of the source.

Legend:
Alternaria solani = assay: In vivo preventive test on Alternaria solani (tomato); details: 500 ppm of active ingredient, evaluated 7 days after inoculation
Procedure: Solvent: 49 parts by weight of N,N-dimethylformamide Emulsifier: 1 part by weight of Alkylarylpolyglycolether To produce a suitable preparation of active compound, 1 part by weight of active compound is mixed with the stated amounts of solvent and emulsifier, and the concentrate is diluted with water to the desired concentration. To test for preventive activity, young plants are sprayed with the preparation of active compound at the stated rate of application. One day after this treatment, the plants are inoculated with an aqueous spore suspension of Alternaria solani.

Pyrenophora teres = assay: In vivo preventive test on Pyrenophora teres (barley); details: 500 ppm of active ingredient, evaluated 7-9 days after inoculation
Procedure, shortened: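 Preventive test: young barley plants received a water-diluted spray of compound formulated with DMF solvent plus alkylaryl polyglycol ether emulsifier, at the stated rate. Inoculation with an aqueous spore suspension of Pyrenophora teres followed one day after spraying.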

Puccinia triticina = assay: In vivo preventive test on Puccinia triticina (wheat); details: for pest or weed control at 500 ppm: Puccinia triticina, 192 h, read-out: Efficacy
[1] = log P by HPLC on reversed-phase column (EEC Directive 79/831 Annex V.A8); type: physicochemical
Procedure: In table 1, the log P values were determined in accordance with EEC Directive 79/831 Annex V.A8 by HPLC (High Performance Liquid Chromatography) on a reversed-phase column (C18), using the method described below: Temperature: 40° C.; […]

[2] = test system: aflatoxines produced by Aspergillus parasiticus; assay: microbe, parasite or virus in culture; type: cell-based
Aspergillus parasiticus = assay: microbe, parasite or virus in culture; type: cell-based
[3] = Table K, 500 ppm of active ingredient, evaluated 8 days after inoculation
[4] = 500 ppm of active ingredient, evaluated 8 days after inoculation
[5] = Table K6, dose 500 ppm, comparison with des-fluoro analogues

Structure (SMILES) | Efficacy (Alternaria solani) [%] | Efficacy (Pyrenophora teres) [%] | logP [1] | % Inhibition of Aflatoxin at 50 μM [2] [%] | % Inhibition of fungal growth at 50 μM (Aspergillus parasiticus) [%] | other results
CN(CCCc1cc(Cl)ccc1Cl)C(=O)c1c(C(F)F)nn(C)c1Cl [Example 167] | 100 | 80 | 3.62 |  |  | Efficacy (Puccinia triticina; [3]): 70%
Cc1nn(C)c(F)c1C(=O)N(C(C)CCc1ccc(Cl)c(Cl)c1)C1CC1 (centres unmarked) [E-13 from WO-2008/101976, N-cyclopropyl-N-[4-(3,4-dichlorophenyl)butan-2-yl]-5-fluoro-1,3-dimethyl-1H-pyrazole-4-carboxamide, reference compound] |  |  |  |  |  | Efficacy (Puccinia triticina; 500 ppm of active ingredient, evaluated 8 days after inoculation, listed as example E-13 disclosed in patent application WO-2008/101976): no protection; pest or weed control at 500 ppm (Puccinia triticina; [4]): 0%
Cn1nc(C(F)F)c(C(=O)NC2CCCCC2Oc2ccccc2)c1Cl (centres unmarked) [Example 246] |  |  | 3.76 |  |  | Efficacy (Puccinia triticina; [3]): 95%
Cn1nc(C(F)F)c(C(=O)NC2CCCCC2C2CCCCC2)c1F (centres unmarked) [Example 374] |  |  | 4.34 |  |  | Efficacy (Puccinia triticina; [4]): total protection; Efficacy (Puccinia triticina; [5]): 100%; Efficacy (Puccinia triticina; [3]): 100%
CC(CCc1ccccc1C(F)(F)F)N(C(=O)c1c(C(F)F)nn(C)c1Cl)C1CC1 (centres unmarked) [Example 220] | 95 | 100 | 4.26 |  |  | Efficacy (Puccinia triticina; [3]): 90%
Cn1nc(C(F)F)c(C(=O)N(C[Si](C)(C)Cc2ccc(Cl)cc2Cl)C2CC2)c1Cl [Example 297] | 100 | 100 | 5.19 | 100 | 85 | 
CC(COc1ccc(Cl)cc1Cl)NC(=O)c1c(C(F)F)nn(C)c1F (centres unmarked) [Example 189] | 90 | 100 | 3.58 | 100 | 94 | 
CC(COc1cc(Cl)ccc1Cl)NC(=O)c1c(C(F)F)nn(C)c1F (centres unmarked) [Example 173] | 90 | 78 | 3.46 | 100 | 85 | 
CC(COc1ccc(Cl)cc1Cl)N(C(=O)c1cn(C)nc1C(F)F)C1CC1 (centres unmarked) [18 from WO-2010/012795, N-cyclopropyl-N-[1-(2,4-dichlorophenoxy)propan-2-yl]-3-(difluoromethyl)-1-methyl-1H-pyrazole-4-carboxamide, reference compound] |  |  |  |  |  | pest or weed control at 500 ppm (Puccinia triticina; [4]): < 30%
Cn1nc(C(F)F)c(C(=O)NC(C)(C)CCc2cccc(C(F)(F)F)c2)c1F [Example 136] | 80 | 95 | 3.94 | 93 | 71 | 
CC(CSc1ccc(Cl)cc1Cl)NC(=O)c1c(C(F)F)nn(C)c1Cl (centres unmarked) [Example 192] | 95 | 100 | 4.01 | 100 | 91 | 
CC(CCc1ccc(Cl)cc1Cl)N(C(=O)c1c(C(F)F)nn(C)c1Cl)C1CC1 (centres unmarked) [Example 183] | 95 | 100 | 4.72 | 82 | 79 | 
Cn1nc(C(F)F)c(C(=O)NCCCc2ccc(Cl)cc2Cl)c1F [Example 180] | 90 | 100 | 3.46 | 100 | 100 | 
CC(COc1ccc(Cl)cc1Cl)NC(=O)c1c(C(F)F)nn(C)c1Cl (centres unmarked) [Example 190] | 90 | 95 | 3.76 | 88 | 77 | 
Cc1cccc(C)c1OCCNC(=O)c1c(C(F)F)nn(C)c1F [Example 151] | 90 | 94 | 2.88 | 100 | 100 | 
Cn1cc(C(=O)NC2CCCCC2C2CCCCC2)c(C(F)F)n1 (centres unmarked) [compound CMP5, N-[1,1′-bi(cyclohexyl)-2-yl]-3-(difluoromethyl)-1-methyl-1H-pyrazole-4-carboxamide, reference compound] |  |  |  |  |  | Efficacy (Puccinia triticina; [4]): no protection; pest or weed control at 500 ppm (Puccinia triticina; [5]): 0%
Cn1nc(C(F)F)c(C(=O)N(CCOc2c(Cl)cccc2Cl)C2CC2)c1F [Example 124, N-cyclopropyl-N-[2-(2,6-dichlorophenoxy)ethyl]-3-(difluoromethyl)-5-fluoro-1-methyl-1H-pyrazole-4-carboxamide] | 95 | 90 | 4.23 |  |  | % Inhibition of Aflatoxin at 50 μM ([2]; 50 µM): 99%; % Inhibition of fungal growth at 50 μM (Aspergillus parasiticus; 50 µM): 81%
CCC(COc1cc(Cl)cc(Cl)c1)NC(=O)c1c(C(F)F)nn(C)c1F (racemic) [Example 123] | 95 | 100 | 4.04 | 100 | 96 | 
Cn1nc(C(F)F)c(C(=O)NC(C)(C)CCc2ccccc2Cl)c1F [Example 148] | 95 | 95 | 3.79 | 90 | 67 | 
CCC(COc1cc(Cl)ccc1Cl)NC(=O)c1c(C(F)F)nn(C)c1F (centres unmarked) [Example 175] | 95 | 95 | 3.83 | 100 | 92 | 
CC(CSc1ccc(Cl)cc1Cl)NC(=O)c1c(C(F)F)nn(C)c1F (centres unmarked) [Example 191] | 95 | 100 | 3.76 | 100 | 100 | 
Cn1nc(C(F)F)c(C(=O)NC(C)(C)CCc2cc(Cl)cc(Cl)c2)c1F [Example 126] | 90 | 100 | 4.41 | 100 | 89 | 
CC(CCc1c(Cl)cc(Cl)cc1Cl)N(C(=O)c1c(C(F)F)nn(C)c1Cl)C1CC1 (centres unmarked) [Example 214] | 80 | 100 | 4.31 | 100 | 93 | 
CC(CNC(=O)c1c(C(F)F)nn(C)c1F)Cc1cc(Cl)cc(Cl)c1 (centres unmarked) [Example 116] | 90 | 100 | 3.83 | 100 | 82 | 
Cn1nc(C(F)F)c(C(=O)NC(COc2ccc(Cl)cc2Cl)C2CC2)c1F (centres unmarked) [Example 193] | 95 | 94 | 3.92 | 100 | 92 | 
Cc1nn(C)c(F)c1C(=O)NC1CCCCC1C1CCCCC1 (centres unmarked) [compound CMP4, N-[1,1′-bi(cyclohexyl)-2-yl]-5-fluoro-1,3-dimethyl-1H-pyrazole-4-carboxamide, reference compound] |  |  |  |  |  | Efficacy (Puccinia triticina; [4]): no protection; pest or weed control at 500 ppm (Puccinia triticina; [5]): 0%
CC(CNC(=O)c1c(C(F)F)nn(C)c1F)Cc1ccc(Cl)c(Cl)c1 (racemic) [Example 128] | 95 | 100 | 3.68 | 83 | 71 | 
